Entries after “also recorded” stand apart in the source; their conditions may differ.
Assays:
[1] = system: β-gal-specific antibodies; assay: Serum β-gal-specific IgG titers after i.n. or s.c. vaccination (ELISA); type: in vivo, BALB/c mice
Protocol: FIG. 5: FIG. 5 illustrates the humoral responses following vaccination using BPPcysGlyc4armPEG and BPPcysAda, respectively, as adjuvant. Mice were immunised by intranasal (i.n.) and subcutaneous, transcutaneous (topical vaccination) (s.c.) routes with either β-galactosidase (30 μg) alone or β-galactosidase mixed with BPPcysGlyc4armPEG or BPPcysAda on days 0, 14 and 28. At day 38 post primary immunisation, serum samples were collected and the titre of 1-galactosidase-specific antibodies was determined by ELISA. As a control, a group in which animals were immunized with β-galactosidase alone was used (A). In (B) and (C) the kinetic of antigen specific serum IgG is shown for intranasal vaccination (B) and parenteral vaccination (C), respectively. […] Differences were statistically significant at p<0.05 (*) with respect to mice receiving antigen alone. One representative out of four independent experiments is shown. SEM is indicated by vertical lines.
Experimental protocol: six-eight weeks-old female BALB/c (H-2d) mice were purchased from Harlan Winkelmann GmbH (Borchen, Germany) and treated in accordance with local and European Community guidelines. […] Endpoint titers were expressed as the reciprocal log2 of the last dilution, which gave an optical density at 405 nm of 0.1 units above the values of the negative controls after 15 to 30 min of incubation.

[2] = system: spleen cells; assay: In vitro T cell-mediated proliferative response of spleen cells restimulated with the adjuvant ([3H]thymidine); type: cell-based, Balb/c mice; conditions: negative control 4armPEG or Ada
Protocol: FIG. 2: FIG. 2 illustrates the cellular responses of restimulated spleen cells using different concentrations of BPPcysGlyc4armPEG or BPPcysAda as adjuvant. […] Results are expressed as counts per minute (A) and (C) and stimulation indexes (cpm samples/cpm in control non stimulated cells) (B).
Experimental protocol: Spleens were removed and pooled for analysis of cellular immune responses. Cells were grown in RPMI 1640 supplemented with 10% fetal calf serum, 100 U/ml of penicillin, 50 μg/ml of streptomycin, 5×10^−5 M 2-mercaptoethanol and 1 mM L-glutamine (GIBCO BRL, Karlsruhe, Germany) and maintained at 37° C. in a humidified 5% CO2 atmosphere. Lymph node and spleen cell suspensions were adjusted to 5×10^6 cells/ml in complete medium, cells were seeded with 100 μl per well in a flat-bottomed 96-well microtiter plate (Nunc) and plates were incubated for 4 days in the presence of different concentrations of soluble β-gal. Each concentration was tested in quadruplicates. […] Cells were then harvested on paper filters (Filtermat A; Wallac, Freiburg, Germany) by using a cell harvester (Inotech, Wohlen, Switzerland), and the amount of incorporated [^3H]thymidine into the DNA of proliferating cells was determined by a […] (Wallac 1450, Micro-Trilux). The results are expressed as the arithmetic mean of [^3H]thymidine uptake in cpm. […]

[3] = system: CD8+ T cells; assay: IFNγ-producing CD8+ T cells after stimulating splenocytes with MHC cl. I restricted β-Gal or OVA peptides; type: in vivo; conditions: vs β-Gal or OVA alone-treated groups; intranasal, subcutaneous or intramuscular route (not shown)
Protocol: To assess the epitope-specific cellular immune response induced by the co-administration of BPPCysAda via intranasal, subcutaneous or intramuscular route, IFNγ-producing CD8+ T cells were analyzed after stimulating splenocytes with the MHC cl. I restricted β-Gal (TPHPARIGL) or OVA ([…]) peptides.

[4] = system: β-gal antigen-specific IgG isotypes; assay: β-gal-specific IgG isotypes in sera of immunized mice (isotype ELISA); type: in vivo
Protocol: FIG. 8: FIG. 8 provides the analysis of beta-Gal specific IgG isotypes in sera of immunized mice. Anti-beta-Gal specific IgG isotypes of the groups immunized with PBS, (control) beta-Gal+either BPPcysGlyc4armPEG or BPPcysPEG (FIG. 8A) or BPPcysAda or Ada alone (FIG. 8B), or beta-Gal alone of mice immunized by the i.n. or s.c. route were determined by ELISA. Results are expressed as end point titers. IgG titers represent the mean of five animals per experimental group. Differences were statistically significant at p<0.05 (*) with respect to mice receiving antigen alone. One representative out of four independent experiments is shown. SEM is indicated by vertical lines.
Isotyp ELISA: 96-well Nunc-Immuno MaxiSorp assay plates (Nunc, Roskilde, Denmark) were coated with 100 μl of β-gal (Boehringer, Mannheim, Germany) at 5 μg/ml in 0.05 M carbonate buffer (pH 8.2) per well. Serial two-fold dilutions of sera or lavages in PBS with 1% BSA and 0.05% Tween 20 were added (100 μl/well), and plates incubated for 2 h at 37° C. After washing, biotin-conjugated rat anti-mouse IgG1 or IgG2a (Pharmingen, Hamburg, Germany) were added to determine IgG subclasses. Plates were incubated for an additional 1 h at 37° C. After four washes, 100 μl of peroxidase-conjugated streptavidin (Pharmingen) was added to cells and plates incubated at 37° C. for 30 min. After four washes, reactions were developed with ABTS in 0.1 M citrate-phosphate buffer (pH 4.35) containing 0.01% H2O2. To determine the concentration of IgG subclasses in serum, standard curves were obtained by coating the wells with an isotype-specific goat anti-mouse IgG, and then by incubating with purified mouse IgG1 or IgG2a antibodies (Dianova, Hamburg, Germany).

With `CCCCCCCCCCCCCCCC(=O)OCC(CSC[C@H](N)C(=O)N[C@H]1[C@@H](O)[C@H](n2cnc3c(N)ncnc32)O[C@@H]1CO)OC(=O)CCCCCCCCCCCCCCC` (single isomer, unassigned) [BPPcysAda, S-[2,3-bis(palmitoyloxy)-(2S or 2R)-propyl]-L-cysteinylcarboxy-3′Amino-3′-deoxyadenosine] the “β-gal-specific serum IgG titers, i.n. administration” value ([1]; i.n. with β-gal, vs antigen alone) was “enhanced expression; also recorded: very high titers; also recorded: significantly higher levels”, the “β-gal-specific serum IgG titers, s.c. route” value ([1]; s.c. co-injection with β-gal, vs β-gal alone) was “enhanced expression; also recorded: increased” and the “proliferative response of restimulated spleen cells (stimulation index)” value [2] was “efficient proliferative response”. The “number of IFNγ-secreting CD8+ T cells” value [3] was “significantly decreased”, the “antigen specific antibodies of the IgG1 subtype, intranasal” value ([4]; intranasal administration) was “significantly enhances; also recorded: strongly increased” and the “antigen specific antibodies of the IgG2a isotype, intranasal” value ([4]; intranasal administration) was “significantly enhances; also recorded: strongly increased”. For the same molecule, the “expression of the IgG1 isotype, subcutaneous” value ([4]; subcutaneous administration) was “strongly increased” and the “expression of the IgG2a isotype, subcutaneous” value ([4]; subcutaneous administration) was “strongly increased”.
